Laboratory results from patent publication US20090048346A1, “THERAPEUTIC FORMULATIONS” (Myriad Genetics, Incorporated, priority 2004, published 2009).

Conditions: 10 mg/mL in Cremophor:EtOH (1:1) diluted 1:9 with D5W, room temperature (approximately 25° C.), 38 days
Description: 10 ml of this solution was diluted 1:9 by the addition of 90 ml of D5W, and the resulting formulation was mixed by inversion until the solution appeared uniformly clear. The resulting mixture—an injectable formulation—was incubated at room temperature (approximately 25° C.) for 38 days.

SMILES: O=C(Nc1cc(C(F)(F)F)ccc1Oc1ccc(Cl)c2ccccc12)c1cc(Cl)ccc1O [5-Chloro-N-[2-(4-chloro-naphtalen-1-yloxy)-5-trifluoromethyl-phenyl] -2-hydroxy-benzamide]
- Stability of compound concentration in the injectable formulation: stable over the entire period
